The results in this text go back to patent US20120015399A1, “FLUORESCENT SOLVATOCHROMIC PIGMENT” (National University Corporation Hokkaido University, priority 2009, published 2012).

Structures are written as SMILES.

The nature of series [1]: Fluorescence colour in aqueous synthetic detergent solutions of different pH. The format is physicochemical. Particulars: blue light 450 nm. The procedure: In the present Example, Compound 6 was dissolved in aqueous synthetic detergent solutions having different pH values and the fluorescence was measured.
Compound 6 (0.1 g each) obtained in Synthesis Example 2 was placed in three test tubes, and 10 ml each of deionized water and one drop of weakly acidic “Biore” (liquid detergent of Kao Corporation), “COOP K Soft” (liquid detergent of Cope Green K.K.) or “My Pet” (liquid detergent of Kao Corporation) were added. Aqueous solutions of Compound 6 were obtained by dissolving the compound using ultrasonic irradiation. The solutions were irradiated with blue light (450 nm) using a full color LED flash light (MFL 143-FB manufactured by Anteya Technology Corporation). The fluorescent color observed was orange in a weakly acidic environment (pH=5), red in a neutral environment […] and crimson in a weakly alkaline environment (pH=8).

Series [2] in a line: Fluorescence spectra of thiophene derivatives in solvents of different polarity. It is filed as physicochemical. The method, then:
(§1) In the present Example, the thiophene derivatives (Compounds 3 to 6) obtained in Synthesis Examples 1 and 2 were dissolved in a variety of solvents with different polarity, and the absorption and the fluorescent spectra were measured.
Next, fluorescence spectra of the thiophene derivatives were measured. The fluorescence spectra were measured using the same samples used for the absorption spectra and using a fluorescence spectrophotometer (F-4500 manufactured by Hitachi Ltd.)
The numbers in the table indicate compound numbers.

Series [3] is described as follows: Absorption spectra of thiophene derivatives in solvents of different polarity. It is filed as physicochemical. Particulars: for Molar absorption coefficient: at maximum absorption wavelength. The method, then:
as §1
Now, the solvent polarity ET(30) (kcal/mole) was obtained by dissolving the betaine dye of the following formula that is a light absorbing solvatochromic dye in each solvent and incorporating the maximum absorption wavelength, λ (nm), into the equation ET(30)=28591/λ.
The thiophene derivative solutions were prepared by using a standard solvent for spectral measurement (Wako Pure Chemical Industries, Ltd.) in concentrations of from […] to 1.2×10^−5M, and absorptions were measured with a visible/ultraviolet spectrophotometer (V-560 UV/VIS Spectrophotometer manufactured by JASCO Corporation). The maximum absorption wavelength (nm) is shown in Table 2, and the molar absorption coefficient (mol^−1cm^−1) at the maximum absorption wavelength is shown in Table 3. The numbers in the tables indicate compound numbers.

Series [4] in a line: Fluorescence emission in water in the presence of additives (lecithin, β-cyclodextrin, Triton X-100, CTAB, SDS). It is filed as physicochemical. Particulars: additives in deionized water, excitation 488 nm, FIG. 5. The procedure: After adding 5 milliliters of deionized water, the mixtures were sonicated with ultrasound for 20 seconds. The supernatant solution was irradiated with light at 488 nm, and the light emitted was measured using a fluorescence spectrophotometer (F-4500). […] After adding 5 milliliters of deionized water, the mixtures were sonicated with ultrasound for 20 seconds. The supernatant solution was irradiated with light at 450 nm, and the light emitted was measured using a fluorescence spectrophotometer (F-4500).

For series [5], the system named is macrophage cells (RAW264). Briefly: Staining of macrophage cells, confocal laser fluorescence microscopy. The following applies: stain solution in calf serum/D-MEM 1:9, fifteen minutes, 37° C., argon laser 488 nm, FIG. 9. It is filed as cell-based. The procedure: In the present Example, macrophage cells were stained using the pyridinium derivatives shown in Table 1 and the differences in cell staining were compared in order to investigate the effects of the alkyl chain lengths in R^7 and R^8.
Several micrograms of each pyridinium derivative (Compounds 10 and 21 to 23) were added to 10 milliliters of a liquid medium obtained by mixing calf serum and D-MEM base medium in a 1:9 ratio. The mixtures were left standing in a refrigerator overnight to dissolve the solids. 5 milliliters of the supernatant solutions were removed the next day and were used as cell staining solutions after filtering the solutions through sterilizing membrane filters with a pore diameter of […] p.m.
The macrophage cells (RAW264 of ATCC Co., Ltd.) were floated in HydroCell dishes manufactured by Cell Seed Co., Ltd. using a liquid culture obtained by mixing calf serum and D-MEM base medium in a 1:9 ratio.
The media were removed from the glass bottom dishes on which the RAW264 cells were supported, and 0.2 ml of each stain solution was added. The cells were stained by leaving the dish standing for fifteen minutes in a CO2 incubator at 37° C. The stain solutions were subsequently removed, and the media were exchanged three times using a liquid medium obtained by mixing calf serum and D-MEM base medium in 1:9 ratio. […] The results are shown in terms of fluorescence microscopic images (FIG. 9).

The test system of series [6] is human fetus kidney-derived HEK293 cells. Briefly: Staining of HEK293 cells, location of dye and emitted light wavelength. The format is cell-based. Particulars: stain solution in calf serum/D-MEM 1:9, fifteen minutes, 37° C., argon laser 488 nm, FIG. 10. The method, then:
In the present Example, human fetus kidney-derived HEK293 cells were stained using Compound 10, and the location of the dye and emitted light wavelength were examined.
Several micrograms of Compound 10 was added to 10 milliliters of a liquid medium obtained by mixing calf serum and D-MEM base medium in a 1:9 ratio. The mixture was left standing in a refrigerator overnight to dissolve the solids. 5 milliliters of the supernatant solution was removed the next day and was used as a cell staining solution after filtering the solution through a sterilizing membrane filter with a pore diameter of […]
The human fetus kidney-derived cells HEK293 (Riken Cell Bank) were cultured in a five milliliter culture flask using a liquid culture obtained by mixing calf serum and D-MEM base medium in a 1:9 ratio. The solution was used to inoculate a glass bottom dish.
The medium was removed from the glass bottom dish on which the HEK293 cells were supported, and 0.2 ml of the stain solution was added. The cells were stained by leaving the dish standing for fifteen minutes in a CO2 incubator at 37° C. The stain solution was subsequently removed, and the medium was exchanged three times using a liquid medium obtained by mixing calf serum and D-MEM base medium in a 1:9 ratio.

As for `CCCCCCN(CCCCCC)c1ccc(-c2ccc(-c3cc[n+](C)cc3)s2)cc1.[I-]` [Compound 6, 4-[5-(4-dihexylamino)phenyl]thiophene-2-yl-1-methylpyridinium iodide], the figures for the Fluorescent color observed entry in series [1] (neutral environment (pH=6)), in series [1] (weakly acidic environment (pH=5)) and in series [1] (weakly alkaline environment (pH=8)) were “red”, “orange” and “crimson”, respectively. The “Maximum fluorescence emission wavelength” value is 568 nm in series [2] (1,4-Dioxane, ET(30) 36.0); 639 nm in series [2] (Acetone, ET(30) 42.2); 653 nm in series [2] (DMSO, ET(30) 45.1). Further, the “Absorption and emission wavelengths, compared” value in series [2] (versus Compounds 3 to 5) was “significantly longer absorption and emission wavelengths than Compounds 3 to 5”. The “Excitation by commonly encountered argon lasers (488 nm)” value in series [3] was “could be efficiently excited”. The Maximum absorption wavelength in series [3] (1,4-Dioxane, solvent polarity ET(30) 36.0) is given as 490 nm; in series [3] (Acetone, solvent polarity ET(30) 42.2), 501 nm; in series [3] (DMSO, solvent polarity ET(30) 45.1) it was 497 nm. For the same compound, the Molar absorption coefficient is on record as 26,000 mol^−1cm^−1 in series [3] (1,4-Dioxane, ET(30) 36.0); 36,000 mol^−1cm^−1 in series [3] (Acetone, ET(30) 42.2); 36,000 mol^−1cm^−1 in series [3] (DMSO, ET(30) 45.1).
For the compound `CCCCCCN(CCCCCC)c1ccc(-c2ccc(-c3cc[n+](C)cc3)s2)cc1.O=S(=O)([O-])C(F)(F)F` [Compound 10, {4-[5-(4-dihexylamino)phenyl]thiophene-2-yl}-1-methylpyridinium trifluoromethane sulfonate], in series [4], the “Fluorescence wavelength response to local environment” value is listed as “respond sensitively to the local environment in terms of fluorescence wavelength”. Besides, in series [5], the Cell staining pattern entry was “the cell membrane and mitochondria were selectively stained”. Moreover, in series [6], the “Emitted light color by location in cell” value was “different for the cell membrane (1 in the figure) and mitochondria”.
